In paper PMC8398255, “Synthesis of 3,5-Bis(trifluoromethyl)phenyl-Substituted Pyrazole Derivatives as Potent Growth Inhibitors of Drug-Resistant Bacteria” (Molecules, 2021):
Values after ≈ are worked out from the molar mass of the structure shown.

Assays:
S. aureus strains = assay: MIC against S. aureus strains; assay type: cell-based, Staphylococcus aureus
Protocol: (§1) Compounds were dissolved in dimethyl sulfoxide (DMSO) to achieve a starting concentration of 32 µg/mL as described by us previously. Compounds were further diluted two-fold across the 96-well honeycomb plate columns in cation adjusted Mueller Hinton broth (CAMHB), and bacterial culture was added. Plates were incubated for 18–20 h at 35 ℃ before determining the minimum concentrations at which wells had no visible turbidity to the naked eye. The MIC values were determined from at least a duplicate result obtained from three independent experiments using fresh bacterial cultures on different days.

[1] = system: E. faecalis ATCC 29212 (Ef12); assay: MIC, microdilution (CLSI); assay type: cell-based; conditions: Enterococcus faecalis, ATCC29212; Ef12, antibiotic susceptible E. faecalis ATCC 29212; n = 3; read-out: MIC
Protocol: as §1

[2] = system: Bacillus subtilis ATCC 6623 (Bs); assay: MIC, microdilution (CLSI); assay type: cell-based; conditions: ATCC6623; Bs, Bacillus subtilis ATCC 6623; n = 3; read-out: MIC
Protocol: as §1

[3] = system: S. aureus ATCC 33592 (Sa92); assay: MIC, microdilution (CLSI); assay type: cell-based; conditions: Staphylococcus aureus, ATCC33592; Sa92, methicillin-resistant S. aureus ATCC 33592; n = 3; read-out: MIC
Protocol: as §1

[4] = system: S. aureus ATCC 33591 (Sa91); assay: MIC, microdilution (CLSI); assay type: cell-based; conditions: Staphylococcus aureus, ATCC33591; Sa91, methicillin-resistant S. aureus ATCC 33591; n = 3; read-out: MIC
Protocol: as §1

[5] = system: S. aureus ATCC 700699 (Sa99); assay: MIC, microdilution (CLSI); assay type: cell-based; conditions: Staphylococcus aureus, ATCC700699; Sa99, methicillin-resistant S. aureus ATCC 700699; n = 3; read-out: MIC
Protocol: as §1

[6] = system: S. aureus ATCC 25923 (Sa23); assay: MIC, microdilution (CLSI); assay type: cell-based; conditions: Staphylococcus aureus, ATCC25923; Sa23, antibiotic susceptible S. aureus ATCC 25923; n = 3; read-out: MIC
Protocol: as §1

[7] = system: E. faecium ATCC 700221 (Ef21); assay: MIC, microdilution (CLSI); assay type: cell-based; conditions: Enterococcus faecium, ATCC 700221 / VRE; Ef21, vancomycin-resistant (VRE) E. faecium ATCC 700221; n = 3; read-out: MIC
Protocol: as §1

[8] = system: S. epidermidis ATCC 700296 (Se); assay: MIC, microdilution (CLSI); assay type: cell-based; conditions: Staphylococcus epidermidis, ATCC700296; Se, S. epidermidis ATCC 700296; n = 3; read-out: MIC
Protocol: as §1

[9] = system: E. faecalis ATCC 51299 (Ef99); assay: MIC, microdilution (CLSI); assay type: cell-based; conditions: Enterococcus faecalis, ATCC 51299 / VRE; Ef99, vancomycin-resistant (VRE) E. faecalis ATCC 51299; n = 3; read-out: MIC
Protocol: as §1

[10] = system: S. aureus BAA-2312 (Sa12); assay: MIC, microdilution (CLSI); assay type: cell-based; conditions: Staphylococcus aureus, BAA2312; Sa12, methicillin-resistant S. aureus BAA-2312; n = 3; read-out: MIC
Protocol: as §1

Gram-positive bacteria = assay: MIC across the tested strains; assay type: cell-based; conditions: for MIC: across the tested strains
Protocol: as §1

Structure (SMILES): CC(C)c1ccc(NCc2cn(-c3ccc(C(=O)O)cc3)nc2-c2cc(C(F)(F)F)cc(C(F)(F)F)c2)cc1 [Compound 2, 4-[3-[3,5-Bis(trifluoromethyl)phenyl]-4-[(4-isopropylanilino)methyl]pyrazol-1-yl] benzoic acid]
- MIC (S. aureus strains; Staphylococcus aureus, S. aureus strains, including MRSA): 1 to 2 µg/mL (≈ 1.83 to 3.65 µM)
- MIC [1]: 2 µg/mL (≈ 3.65 µM)
- MIC [2]: 1 µg/mL (≈ 1.83 µM)
- MIC [3]: 1 µg/mL (≈ 1.83 µM)
- MIC [4]: 1 µg/mL (≈ 1.83 µM)
- MIC [5]: 2 µg/mL (≈ 3.65 µM)
- MIC [6]: 2 µg/mL (≈ 3.65 µM)
- MIC [7]: 1 µg/mL (≈ 1.83 µM)
- MIC [8]: 2 µg/mL (≈ 3.65 µM)
- MIC [9]: 1 µg/mL (≈ 1.83 µM)
- MIC [10]: 1 µg/mL (≈ 1.83 µM)

Structure (SMILES): O=C(O)c1ccc(NCc2cn(-c3ccc(C(=O)O)cc3)nc2-c2cc(C(F)(F)F)cc(C(F)(F)F)c2)cc1 [Compound 13, 4-[[3-[3,5-Bis(trifluoromethyl)phenyl]-1-(4-carboxyphenyl)pyrazol-4-yl]methylamino] benzoic acid]
- MIC [1]: > 32 µg/mL
- MIC [2]: > 32 µg/mL
- MIC [3]: > 32 µg/mL
- MIC [4]: > 32 µg/mL
- MIC [5]: > 32 µg/mL
- MIC [6]: > 32 µg/mL
- MIC [7]: > 32 µg/mL
- MIC [8]: > 32 µg/mL
- MIC [9]: > 32 µg/mL
- MIC [10]: 32 µg/mL (≈ 58.2 µM)
- antibacterial activity (Gram-positive bacteria; tested bacteria): eliminated the activity

Structure (SMILES): Cc1cc(NCc2cn(-c3ccc(C(=O)O)cc3)nc2-c2cc(C(F)(F)F)cc(C(F)(F)F)c2)ccc1F [Compound 14, 4-[3-[3,5-Bis(trifluoromethyl)phenyl]-4-[(4-fluoro-3-methyl-anilino)methyl]pyrazol-1-yl] benzoic acid]
- MIC [1]: 2 µg/mL (≈ 3.72 µM)
- MIC [2]: 1 µg/mL (≈ 1.86 µM)
- MIC [3]: 1 µg/mL (≈ 1.86 µM)
- MIC [4]: 2 µg/mL (≈ 3.72 µM)
- MIC [5]: 2 µg/mL (≈ 3.72 µM)
- MIC [6]: 2 µg/mL (≈ 3.72 µM)
- MIC [7]: 1 µg/mL (≈ 1.86 µM)
- MIC [8]: 4 µg/mL (≈ 7.44 µM)
- MIC [9]: 2 µg/mL (≈ 3.72 µM)
- MIC [10]: 1 µg/mL (≈ 1.86 µM)
- MIC (Gram-positive bacteria): ≥ 1 µg/mL

Structure (SMILES): Cc1ccc(NCc2cn(-c3ccc(C(=O)O)cc3)nc2-c2cc(C(F)(F)F)cc(C(F)(F)F)c2)cc1Cl [Compound 15, 4-[3-[3,5-Bis(trifluoromethyl)phenyl]-4-[(3-chloro-4-methyl-anilino)methyl]pyrazol-1-yl] benzoic acid]
- MIC [1]: 2 µg/mL (≈ 3.61 µM)
- MIC [2]: 1 µg/mL (≈ 1.81 µM)
- MIC [3]: 2 µg/mL (≈ 3.61 µM)
- MIC [4]: 1 µg/mL (≈ 1.81 µM)
- MIC [5]: 2 µg/mL (≈ 3.61 µM)
- MIC [6]: 2 µg/mL (≈ 3.61 µM)
- MIC [7]: 1 µg/mL (≈ 1.81 µM)
- MIC [8]: 2 µg/mL (≈ 3.61 µM)
- MIC [9]: 2 µg/mL (≈ 3.61 µM)
- MIC [10]: 1 µg/mL (≈ 1.81 µM)
- MIC (Gram-positive bacteria): ≥ 1 µg/mL

Structure (SMILES): Cc1cc(NCc2cn(-c3ccc(C(=O)O)cc3)nc2-c2cc(C(F)(F)F)cc(C(F)(F)F)c2)ccc1Br [Compound 16, 4-[3-[3,5-Bis(trifluoromethyl)phenyl]-4-[(4-bromo-3-methyl-anilino)methyl]pyrazol-1-yl] benzoic acid]
- MIC [1]: 1 µg/mL (≈ 1.67 µM)
- MIC [2]: 1 µg/mL (≈ 1.67 µM)
- MIC [3]: 1 µg/mL (≈ 1.67 µM)
- MIC [4]: 1 µg/mL (≈ 1.67 µM)
- MIC [5]: 2 µg/mL (≈ 3.34 µM)
- MIC [6]: 1 µg/mL (≈ 1.67 µM)
- MIC [7]: 1 µg/mL (≈ 1.67 µM)
- MIC [8]: 2 µg/mL (≈ 3.34 µM)
- MIC [9]: 2 µg/mL (≈ 3.34 µM)
- MIC [10]: 1 µg/mL (≈ 1.67 µM)
- MIC (Gram-positive bacteria): ≥ 1 µg/mL

Structure (SMILES): O=C(O)c1ccc(-n2cc(CNc3ccc(F)c(F)c3)c(-c3cc(C(F)(F)F)cc(C(F)(F)F)c3)n2)cc1 [Compound 17, 4-[3-[3,5-Bis(trifluoromethyl)phenyl]-4-[(3,4-difluoroanilino)methyl]pyrazol-1-yl] benzoic acid]
- MIC [1]: 4 µg/mL (≈ 7.39 µM)
- MIC [2]: 1 µg/mL (≈ 1.85 µM)
- MIC [3]: 2 µg/mL (≈ 3.69 µM)
- MIC [4]: 2 µg/mL (≈ 3.69 µM)
- MIC [5]: 2 µg/mL (≈ 3.69 µM)
- MIC [6]: 2 µg/mL (≈ 3.69 µM)
- MIC [7]: 2 µg/mL (≈ 3.69 µM)
- MIC [8]: 4 µg/mL (≈ 7.39 µM)
- MIC [9]: 4 µg/mL (≈ 7.39 µM)
- MIC [10]: 2 µg/mL (≈ 3.69 µM)
- MIC (Gram-positive bacteria): 1 to 4 µg/mL (≈ 1.85 to 7.39 µM)

Structure (SMILES): O=C(O)c1ccc(-n2cc(CNc3ccc(F)c(C(F)(F)F)c3)c(-c3cc(C(F)(F)F)cc(C(F)(F)F)c3)n2)cc1 [Compound 22, 4-[3-[3,5-Bis(trifluoromethyl)phenyl]-4-[[4-fluoro-3-(trifluoromethyl)anilino]methyl]pyrazol-1-yl] benzoic acid]
- times more effective than vancomycin and daptomycin (S. aureus strains; against S. aureus strains): up to 4 times
- MIC [1]: 2 µg/mL (≈ 3.38 µM)
- MIC [2]: 2 µg/mL (≈ 3.38 µM)
- MIC [3]: 1 µg/mL (≈ 1.69 µM)
- MIC [4]: 1 µg/mL (≈ 1.69 µM)
- MIC [5]: 1 µg/mL (≈ 1.69 µM)
- MIC [6]: 1 µg/mL (≈ 1.69 µM)
- MIC [7]: 1 µg/mL (≈ 1.69 µM)
- MIC [8]: 2 µg/mL (≈ 3.38 µM)
- MIC [9]: 2 µg/mL (≈ 3.38 µM)
- MIC [10]: 1 µg/mL (≈ 1.69 µM)
